According to patent US20080070990A1, “USE OF RACTOPAMINE ENANTIOMERS” (STIRLING PRODUCTS LIMITED, priority 2006, published 2008):
Where a name gives a salt, the structure may show the parent alone.

Tests used:
rats [1] = experiment: Neuropharmacological study in rats (Irwin test); type: in vivo; settings: for drug-related stress, Irwin test: rats, oral
mice [2] = experiment: Stress testing in mice, methodology of Aberg (U.S. Pat. No. 6,372,799); type: in vivo; settings: preliminary results
mice [3] = experiment: Spontaneous motor activity studies in mice; type: in vivo; settings: oral
livestock animals = experiment: Stress in livestock animals (applicant's findings); settings: in vivo
animals = experiment: Cardiovascular parameters in animals; type: in vivo; settings: concentrations corresponding to doses suitable for growth promotion
rats [4] = settings: cited from earlier work
[5] = biological target: adrenergic β1(h) receptor (Homo sapiens, UniProt P08588); experiment: Affinity (Ki) for adrenergic β-receptors, β1; type: binding
[6] = biological target: adrenergic B3 (h) receptor (Homo sapiens, UniProt P13945); experiment: Affinity (Ki) for adrenergic β-receptors, β3; type: binding
obese animals = experiment: Weight loss in obese animals; settings: in vivo
pigs = settings: literature; cited from earlier work
[7] = test system: adrenergic beta-receptors in adipose tissue; settings: animals exposed to racemic ractopamine; cited from earlier work
adrenergic beta-receptor = settings: cited from earlier work

Sequence of adrenergic B3 (h) receptor (P13945 whole entry): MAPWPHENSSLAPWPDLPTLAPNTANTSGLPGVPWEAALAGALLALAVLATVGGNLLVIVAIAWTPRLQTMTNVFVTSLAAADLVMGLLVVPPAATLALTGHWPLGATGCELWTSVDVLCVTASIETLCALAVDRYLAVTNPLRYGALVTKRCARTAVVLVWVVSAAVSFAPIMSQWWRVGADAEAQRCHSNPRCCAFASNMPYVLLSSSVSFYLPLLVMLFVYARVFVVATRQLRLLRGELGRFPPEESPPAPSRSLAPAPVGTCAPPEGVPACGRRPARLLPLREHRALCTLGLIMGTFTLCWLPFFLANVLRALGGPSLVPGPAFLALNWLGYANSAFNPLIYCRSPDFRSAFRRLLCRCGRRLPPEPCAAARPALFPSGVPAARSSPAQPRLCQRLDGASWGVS
Sequence of adrenergic β1(h) receptor (P08588 whole entry): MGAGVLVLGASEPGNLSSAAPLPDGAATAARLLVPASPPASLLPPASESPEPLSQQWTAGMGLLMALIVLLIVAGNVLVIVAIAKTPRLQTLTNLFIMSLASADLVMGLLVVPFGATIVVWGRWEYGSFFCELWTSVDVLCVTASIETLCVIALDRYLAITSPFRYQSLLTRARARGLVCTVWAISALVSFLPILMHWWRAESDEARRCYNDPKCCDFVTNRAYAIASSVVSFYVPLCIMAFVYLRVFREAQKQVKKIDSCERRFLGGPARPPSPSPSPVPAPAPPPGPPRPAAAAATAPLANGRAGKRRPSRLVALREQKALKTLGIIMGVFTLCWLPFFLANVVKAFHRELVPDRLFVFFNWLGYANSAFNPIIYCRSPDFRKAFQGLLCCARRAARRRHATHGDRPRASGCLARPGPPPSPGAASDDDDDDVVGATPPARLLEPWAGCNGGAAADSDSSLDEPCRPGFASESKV

| SMILES | drug-related stress, Irwin test (rats [1]) | drug-related stress, spontaneous motor activity (mice [3]) | affinity for beta-3 receptors (in words) [6] | stress in pigs / livestock animals (pigs) | adrenergic beta-receptor stimulating activity (adrenergic beta-receptor) | other results |
| --- | --- | --- | --- | --- | --- | --- |
| C[C@H](CCc1ccc(O)cc1)NC[C@H](O)c1ccc(O)cc1.Cl (racemic) [RR-ractopamine, RR 4-Hydroxy-a [[[3-(4-hydroxyphenyl)-1-methylpropyl]amino]methyl]benzenemethanol hydrochloride] | do not show signs of drug-related stress | no signs of drug-related stress | – | – | – | CNS-mediated stress, stress testing in mice (mice [2]): not causing stress; stress as side effect in livestock animals (livestock animals): does not cause this side effect in livestock animals; effects on cardiovascular parameters (animals): failed to reveal detrimental effects on cardiovascular parameters; potency rank among the four stereoisomers in vivo (rats [4]): most potent |
| CC(CCc1ccc(O)cc1)NCC(O)c1ccc(O)cc1 (racemic) [Ractopamine, 4-hydroxy-a-[[[3-(4-hydroxyphenyl)-1-methylpropyl]amino]methyl]benzenemethanol hydrochloride] | demonstrate stress | drug-related and CNS-mediated (“psychological”) stress | negligible affinity for beta-3 receptors | cause stress in livestock animals | – | Ki [5]: 0.26 µM; Ki [6]: 14 µM; weight loss in obese animals (obese animals): cause weight loss in obese animals; reduction of concentration of adrenergic beta-receptors in adipose tissue [7]: 50% |
| CC(CCc1ccc(O)cc1)NCC(O)c1ccc(O)cc1 (single isomer, unassigned) [RS-enantiomer] | – | – | – | – | reduced beta-receptor activity when compared with RR-ractopamine | – |
| C[C@H](CCc1ccc(O)cc1)NC[C@@H](O)c1ccc(O)cc1 (single isomer, unassigned) [SR-enantiomer] | – | – | – | – | reduced beta-receptor activity when compared with RR-ractopamine | – |
| C[C@@H](CCc1ccc(O)cc1)NC[C@@H](O)c1ccc(O)cc1 (single isomer, unassigned) [SS-enantiomer] | – | – | – | – | completely devoid of adrenergic beta-receptor stimulating activity | – |
| CC(C)(C)NC[C@H](O)c1ccc(O)c(CO)c1 [R-salbutamol] | – | – | negligible affinity for beta-3 receptors | does not induce stress in pigs | – | CNS-effects related to stress in laboratory animals (rats [1]; laboratory animals): not causing CNS-effects related to stress in laboratory animals |
